Reference: EPA's ToxValDB 9.5

System: Rattus norvegicus
[1] = subchronic, duration: 90 days, oral, diet, M/F, Sprague-Dawley, no effects
[2] = subchronic, duration: 42 days, oral, gavage, M/F, body weight
[3] = subchronic, duration: 90 days, oral

## CC(=O)NCCS(=O)(=O)O.CC(=O)NCCS(=O)(=O)O.[Mg]
subchronic, duration: 13 weeks, oral, gavage, M/F, Crj:CD, no effects
  NOAEL: 1000 mg/kg-day

## Cc1nc2cccc(OCC(C)(C)C(=O)NC(C)C)c2c(N)c1C(=O)O
Reproduction developmental, oral, gavage, F, Crj:CD, no effects
  NOAEL: 1000 mg/kg-day
subchronic, duration: 13 weeks, oral, diet, M/F, Crj:CD, no effects
  NOAEL: 100 mg/kg-day

## Cc1sc2nc(=O)[nH]c(N)c2c1C.Cl
subchronic, duration: 13 weeks, oral, diet, M/F, Sprague-Dawley, no effects
  NOAEL: 60 mg/kg-day

## COc1cc(S(=O)(=O)[O-])c(C)cc1N=Nc1c(O)ccc2cc(S(=O)(=O)[O-])ccc12.[Na+].[Na+]
chronic, oral, M/F, body weight
  NOAEL: 701 mg/kg-day
developmental, M, development
  NOAEL: 701 mg/kg-day
Reproduction developmental, growth
  NOAEL: 695 mg/kg-day
Reproduction developmental, oral, M/F, growth
  NOAEL: 695 mg/kg-day

## CC1OCCC12SC1CCOC1(C)S2 (centres undefined)
subchronic, duration: 90 days, oral, diet, M, hematological
  NOAEL: 25 mg/kg-day

## C[n+]1cccc(C(=N)[O-])c1.Cl
chronic, duration: 91 days, oral, gavage, M/F, clinical chemistry
  NOAEL: 250 mg/kg-day

## NC(=O)Cc1cccc2ccccc12 [1-Naphthaleneacetamide]
developmental, development
  NOAEL: 15 mg/kg-day
subchronic, duration: 90 days, oral, hematological
  NOAEL: 10 mg/kg-day

## C=CCSCC=C [1-Propene, 3,3'-thiobis-]
chronic, duration: 14 weeks, oral, gavage, M/F, Wistar, no effects
  NOAEL: 250 mg/kg-day

## CSCSCSC [2,4,6-Trithiaheptane]
[1]
  NOAEL: 0.2 mg/kg-day

## CC1(O)CSC(C)(O)CS1 (centres undefined) [2,5-Dimethyl-1,4-dithiane-2,5-diol]
[1]
  NOAEL: 3.14 mg/kg-day

## CC(=O)C1=NCCS1 [2-Acetyl-2-thiazoline]
subchronic, duration: 90 days
  NOAEL: 1.8 mg/kg-day
subchronic, duration: 90 days, oral, diet, M/F, no effects
  NOAEL: 1.8 mg/kg-day

## CCC(CC)C(=O)O [2-Ethylbutyric acid]
Reproduction developmental, duration: 10 days, oral, gavage, F, Sprague-Dawley, no effects
  NOAEL: 200 mg/kg-day
Reproduction developmental, duration: 10 days, oral, gavage, F, no effects
  NOAEL: 200 mg/kg-day

## CC(O)C(=O)NCCc1ccc(O)cc1 (centres undefined) [2-Hydroxy-N-[2-(4-hydroxyphenyl)ethyl]propanimidic acid]
subchronic, duration: 90 days, oral, M/F
  NOAEL: 8.4 mg/kg-day

## COc1ccccc1C=O [2-Methoxybenzaldehyde]
subchronic, duration: 49 days, oral, gavage, histopathology: nonneoplastic
  NOAEL: 10 mg/kg-day

## O=C1OC(=O)C2C3C=CC(C3)C12 (centres undefined) [2-Norbornene-5,6-dicarboxylic anhydride]
subchronic, duration: 90 days, oral, gavage, M/F, body weight
  NOAEL: 250 mg/kg-day

## C=CCCN=C=S [3-Butenyl isothiocyanate]
chronic, duration: 721 days, oral, gavage, M/F, histopathology: neoplastic
  NOAEL: 12 mg/kg-day

## CCOc1cc(C=O)ccc1O [3-Ethoxy-4-hydroxybenzaldehyde]
chronic, duration: 14 weeks
  NOAEL: 500 mg/kg-day

## C=CCc1cc(OC)c(O)c(OC)c1 [4-Allyl-2,6-dimethoxyphenol]
subchronic, duration: 90 days, clinical chemistry
  NOAEL: 300 mg/kg-day

## COc1ccc(C=O)cc1 [4-Methoxybenzaldehyde]
[2]
  NOAEL: 20 mg/kg-day

## COc1ccc(COC(C)=O)cc1 [4-Methoxybenzyl acetate]
[2]
  NOAEL: 20 mg/kg-day

## CCC(=O)CC(C)CC (centres undefined) [5-Methyl-3-heptanone]
subchronic, duration: 13 weeks, oral, gavage, M, Sprague-Dawley, behavior
  NOAEL: 82 mg/kg-day
subchronic, duration: 13 weeks, oral, gavage, M, Sprague-Dawley, clinical signs
  NOAEL: 82 mg/kg-day
subchronic, duration: 13 weeks, oral, gavage, M, behavior
  NOAEL: 82 mg/kg-day
subchronic, duration: 13 weeks, oral, gavage, M, neurology
  NOAEL: 82 mg/kg-day

## CC(=O)OC1(C)CCCC(C)(C)C12CCC(C)O2 (centres undefined) [6-Acetoxydihydrotheaspirane]
subchronic, duration: 90 days, oral, diet, M/F, Crj:CD, food efficiency
  NOAEL: 52 mg/kg-day

## CCCCCC1CC=CC(=O)O1 (centres undefined) [6-Pentyl-5,6-dihydro-2H-pyran-2-one]
subchronic, duration: 90 days
  NOAEL: 12.1 mg/kg-day

## CCC/C=C/C=O [(2E)-2-Hexenal]
subchronic, duration: 13 weeks, oral, diet, M/F, no effects
  NOAEL: 257 mg/kg-day

## C/C=C/C=C/C=O [(2E,4E)-2,4-Hexadienal]
chronic, duration: 14 weeks, oral, gavage, M/F, body weight
  NOAEL: 15 mg/kg-day

## CC(C)(C)c1ccc(CC#N)cc1 [(4-tert-Butylphenyl)acetonitrile]
short-term, duration: 28 days
  NOAEL: 6.5 mg/kg-day

## C=CC(C)(O)C/C=C/C(=C)C (centres undefined) [(E)-3,7-Dimethylocta-1,5,7-trien-3-ol]
[1]
  NOAEL: 44 mg/kg-day

## C=CCSC(=O)CCCCC [Allyl thiohexanoate]
[3]
  NOAEL: 6.63 mg/kg-day

## CSc1ccccc1 [Benzene, (methylthio)-]
[3]
  NOAEL: 0.43 mg/kg-day

## Cc1occc1SSc1ccoc1C [Bis(2-methyl-3-furyl)disulfide]
subchronic, duration: 90 days, oral, diet, M/F, Wistar, no effects
  NOAEL: 0.45 mg/kg-day
subchronic, duration: 90 days, oral, diet, Wistar, no effects
  NOAEL: 0.45 mg/kg-day

## CC(C)(c1ccc(OCC2CO2)cc1)c1ccc(OCC2CO2)cc1 (centres undefined) [Bisphenol A diglycidyl ether]
chronic, duration: 2 years, oral, gavage, M/F, Fischer 344, organ weight
  NOAEL: 15 mg/kg-day

## COc1ccc(O)c(C(C)(C)C)c1 [Butylated hydroxyanisole]
developmental, oral, Sprague-Dawley, development
  NOAEL: 100 mg/kg-day

## CCCCOC(=O)c1ccccc1C(=O)OCCCC [Dibutyl 1,2-benzenedicarboxylate]
Reproduction developmental, oral, F, histopathology: nonneoplastic
  LOAEL: 2 mg/kg-day

## CC(C)SSSC(C)C [Diisopropyl trisulfide]
subchronic, duration: 13 weeks, oral, gavage
  NOEL: 4.8 mg/kg-day

## CS(C)=O [Dimethyl sulfoxide]
Repeat dose other, oral, gavage, F, no effects
  NOAEL: 1000 mg/kg-day

## C[N+](C)(C)[C@@H](Cc1c[nH]c(=S)[nH]1)C(=O)[O-] [Ergothioneine]
Reproduction developmental, duration: 13 weeks, oral, diet, M/F, Sprague-Dawley, no effects
  NOEL: 725 mg/kg-day
short-term, duration: 28 days, oral, gavage, M/F, Sprague-Dawley, hematological
  NOAEL: 800 mg/kg-day

## CCCCCCCCCCCC(=O)N[C@@H](CCCN=C(N)N)C(=O)OCC.Cl [Ethyl-N2-dodecanoyl-L-argininate hydrochloride]
subchronic, duration: 13 weeks, oral, M/F, Sprague-Dawley, clinical chemistry
  NOAEL: 47 mg/kg-day
